Holding throughout (type): biochemical
The target of one experiment is T1, Aurora A (Homo sapiens, UniProt O14965).
T1 construct: gene AURKA; full length in pET21d, 6xHis tag (Aurora A-6xHis), E. coli, Ni-NTA purified
T1 sequence (O14965 1-403): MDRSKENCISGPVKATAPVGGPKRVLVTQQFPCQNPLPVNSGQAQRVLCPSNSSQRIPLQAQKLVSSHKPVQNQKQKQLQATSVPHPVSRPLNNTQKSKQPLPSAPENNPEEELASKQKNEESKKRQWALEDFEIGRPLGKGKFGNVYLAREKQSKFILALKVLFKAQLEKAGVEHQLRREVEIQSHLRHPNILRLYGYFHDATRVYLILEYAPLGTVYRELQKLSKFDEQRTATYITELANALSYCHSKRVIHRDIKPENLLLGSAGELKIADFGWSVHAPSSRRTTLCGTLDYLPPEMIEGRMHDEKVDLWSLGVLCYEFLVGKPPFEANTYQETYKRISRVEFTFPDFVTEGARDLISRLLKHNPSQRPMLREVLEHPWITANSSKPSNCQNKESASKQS
The experiment in a line: in vitro kinase assay (Z'LYTE Ser/Thr […] peptide; Easylite luminescence ATP detection).

The next experiment has as its target T2, FGFR.
T2 construct: gene FGFR1; selectivity panel
The experiment in a line: Z'LYTE kinase selectivity assay. The text has this: Z'LYTE kinase selectivity assay on FGFR

In another experiment the target is T3, IGF1R (Homo sapiens, UniProt P08069).
T3 construct: selectivity panel
T3 sequence (P08069 31-736): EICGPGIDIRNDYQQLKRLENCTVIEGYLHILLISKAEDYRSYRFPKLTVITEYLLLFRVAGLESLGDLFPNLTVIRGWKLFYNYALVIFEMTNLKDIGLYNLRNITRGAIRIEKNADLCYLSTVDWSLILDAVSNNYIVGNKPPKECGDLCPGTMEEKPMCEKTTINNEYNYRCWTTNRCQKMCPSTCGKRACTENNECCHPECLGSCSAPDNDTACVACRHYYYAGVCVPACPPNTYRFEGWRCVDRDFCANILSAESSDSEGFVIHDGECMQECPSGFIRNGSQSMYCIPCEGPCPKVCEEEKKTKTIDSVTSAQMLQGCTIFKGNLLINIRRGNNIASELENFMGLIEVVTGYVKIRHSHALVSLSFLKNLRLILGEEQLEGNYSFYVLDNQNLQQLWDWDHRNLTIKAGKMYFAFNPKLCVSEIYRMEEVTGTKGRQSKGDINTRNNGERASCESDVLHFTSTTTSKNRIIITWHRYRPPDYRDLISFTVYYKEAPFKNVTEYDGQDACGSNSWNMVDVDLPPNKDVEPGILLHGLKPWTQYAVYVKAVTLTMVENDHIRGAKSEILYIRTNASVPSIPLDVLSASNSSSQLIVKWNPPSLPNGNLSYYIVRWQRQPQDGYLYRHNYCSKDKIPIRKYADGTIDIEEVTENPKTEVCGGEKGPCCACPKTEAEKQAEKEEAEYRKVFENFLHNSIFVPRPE
T3 sequence (P08069 741-1367): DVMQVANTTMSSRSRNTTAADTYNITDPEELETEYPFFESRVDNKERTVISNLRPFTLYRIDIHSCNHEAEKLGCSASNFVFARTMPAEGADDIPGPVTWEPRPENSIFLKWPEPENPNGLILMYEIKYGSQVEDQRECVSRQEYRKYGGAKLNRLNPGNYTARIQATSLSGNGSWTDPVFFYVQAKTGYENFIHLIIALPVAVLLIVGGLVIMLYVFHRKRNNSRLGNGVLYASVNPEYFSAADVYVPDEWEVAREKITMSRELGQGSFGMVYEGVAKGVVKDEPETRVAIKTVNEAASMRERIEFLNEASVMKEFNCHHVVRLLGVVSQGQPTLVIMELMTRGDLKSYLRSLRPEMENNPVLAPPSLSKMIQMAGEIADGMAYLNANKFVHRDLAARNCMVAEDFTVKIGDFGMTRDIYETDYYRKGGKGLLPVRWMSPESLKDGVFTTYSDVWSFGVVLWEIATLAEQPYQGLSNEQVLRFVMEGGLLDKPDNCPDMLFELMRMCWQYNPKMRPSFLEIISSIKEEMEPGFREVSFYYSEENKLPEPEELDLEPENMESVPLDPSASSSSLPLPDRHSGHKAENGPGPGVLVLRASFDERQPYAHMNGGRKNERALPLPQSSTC
The experiment in a line: Z'LYTE kinase selectivity assay. The text has this:
Z'LYTE kinase selectivity assay on IGF1R

The next experiment addresses T4, KDR (Homo sapiens, UniProt P35968).
T4 construct: selectivity panel
Kind of experiment: Z'LYTE kinase selectivity assay. The text has this: Z'LYTE kinase selectivity assay on KDR

For a further experiment, the target named is T5, EGFR (Homo sapiens, UniProt P00533).
T5 construct: selectivity panel
T5 sequence (P00533 25-1210): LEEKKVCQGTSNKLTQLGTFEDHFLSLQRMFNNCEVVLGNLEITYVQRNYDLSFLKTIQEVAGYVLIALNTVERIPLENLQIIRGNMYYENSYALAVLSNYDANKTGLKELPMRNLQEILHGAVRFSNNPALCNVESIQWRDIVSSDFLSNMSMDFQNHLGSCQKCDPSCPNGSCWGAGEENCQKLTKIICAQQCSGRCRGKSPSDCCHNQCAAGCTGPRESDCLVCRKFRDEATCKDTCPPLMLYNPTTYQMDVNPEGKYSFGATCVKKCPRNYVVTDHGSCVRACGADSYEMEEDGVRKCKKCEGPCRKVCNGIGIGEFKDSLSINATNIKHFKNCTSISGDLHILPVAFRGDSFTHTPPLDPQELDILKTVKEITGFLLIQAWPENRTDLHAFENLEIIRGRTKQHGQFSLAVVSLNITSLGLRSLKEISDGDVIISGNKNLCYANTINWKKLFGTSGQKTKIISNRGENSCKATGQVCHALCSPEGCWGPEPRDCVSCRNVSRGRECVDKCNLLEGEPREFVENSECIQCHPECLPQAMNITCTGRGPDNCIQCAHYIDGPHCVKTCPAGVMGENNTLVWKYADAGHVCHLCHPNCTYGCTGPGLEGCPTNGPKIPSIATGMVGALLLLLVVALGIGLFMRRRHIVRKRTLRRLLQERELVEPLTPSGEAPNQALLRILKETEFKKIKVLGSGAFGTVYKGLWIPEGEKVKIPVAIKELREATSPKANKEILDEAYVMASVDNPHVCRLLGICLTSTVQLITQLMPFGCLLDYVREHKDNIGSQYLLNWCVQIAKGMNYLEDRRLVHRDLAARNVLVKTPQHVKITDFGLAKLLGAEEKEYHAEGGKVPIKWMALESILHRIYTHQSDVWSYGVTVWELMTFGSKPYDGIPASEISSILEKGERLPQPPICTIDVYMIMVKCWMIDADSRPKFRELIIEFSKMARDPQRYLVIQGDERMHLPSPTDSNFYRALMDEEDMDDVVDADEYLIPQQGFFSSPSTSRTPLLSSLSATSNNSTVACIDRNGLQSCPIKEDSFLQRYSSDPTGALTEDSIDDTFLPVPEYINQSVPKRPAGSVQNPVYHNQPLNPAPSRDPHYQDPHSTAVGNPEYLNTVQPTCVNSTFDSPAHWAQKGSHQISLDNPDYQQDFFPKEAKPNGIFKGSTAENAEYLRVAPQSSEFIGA
The experiment in a line: Z'LYTE kinase selectivity assay. The text has this:
Z'LYTE kinase selectivity assay on EGFR

A further experiment addresses T6, Aurora B (Homo sapiens, UniProt Q96GD4).
T6 construct: gene AURKB; selectivity panel
Kind of experiment: Z'LYTE kinase selectivity assay. The text has this: Z'LYTE kinase selectivity assay on Aurora B

Read-outs that look alike come from different tables or passages of the source.

T6 sequence (Q96GD4 whole entry): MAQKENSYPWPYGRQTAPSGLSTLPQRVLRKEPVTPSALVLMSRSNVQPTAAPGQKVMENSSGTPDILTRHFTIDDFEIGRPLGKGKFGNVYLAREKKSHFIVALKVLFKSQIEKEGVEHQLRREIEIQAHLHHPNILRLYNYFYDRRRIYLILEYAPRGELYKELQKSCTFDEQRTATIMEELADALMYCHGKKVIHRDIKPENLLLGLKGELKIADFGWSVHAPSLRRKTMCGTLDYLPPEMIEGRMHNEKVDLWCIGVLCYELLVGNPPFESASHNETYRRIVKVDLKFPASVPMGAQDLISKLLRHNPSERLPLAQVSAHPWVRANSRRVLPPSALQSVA
T4 sequence (P35968 20-1356): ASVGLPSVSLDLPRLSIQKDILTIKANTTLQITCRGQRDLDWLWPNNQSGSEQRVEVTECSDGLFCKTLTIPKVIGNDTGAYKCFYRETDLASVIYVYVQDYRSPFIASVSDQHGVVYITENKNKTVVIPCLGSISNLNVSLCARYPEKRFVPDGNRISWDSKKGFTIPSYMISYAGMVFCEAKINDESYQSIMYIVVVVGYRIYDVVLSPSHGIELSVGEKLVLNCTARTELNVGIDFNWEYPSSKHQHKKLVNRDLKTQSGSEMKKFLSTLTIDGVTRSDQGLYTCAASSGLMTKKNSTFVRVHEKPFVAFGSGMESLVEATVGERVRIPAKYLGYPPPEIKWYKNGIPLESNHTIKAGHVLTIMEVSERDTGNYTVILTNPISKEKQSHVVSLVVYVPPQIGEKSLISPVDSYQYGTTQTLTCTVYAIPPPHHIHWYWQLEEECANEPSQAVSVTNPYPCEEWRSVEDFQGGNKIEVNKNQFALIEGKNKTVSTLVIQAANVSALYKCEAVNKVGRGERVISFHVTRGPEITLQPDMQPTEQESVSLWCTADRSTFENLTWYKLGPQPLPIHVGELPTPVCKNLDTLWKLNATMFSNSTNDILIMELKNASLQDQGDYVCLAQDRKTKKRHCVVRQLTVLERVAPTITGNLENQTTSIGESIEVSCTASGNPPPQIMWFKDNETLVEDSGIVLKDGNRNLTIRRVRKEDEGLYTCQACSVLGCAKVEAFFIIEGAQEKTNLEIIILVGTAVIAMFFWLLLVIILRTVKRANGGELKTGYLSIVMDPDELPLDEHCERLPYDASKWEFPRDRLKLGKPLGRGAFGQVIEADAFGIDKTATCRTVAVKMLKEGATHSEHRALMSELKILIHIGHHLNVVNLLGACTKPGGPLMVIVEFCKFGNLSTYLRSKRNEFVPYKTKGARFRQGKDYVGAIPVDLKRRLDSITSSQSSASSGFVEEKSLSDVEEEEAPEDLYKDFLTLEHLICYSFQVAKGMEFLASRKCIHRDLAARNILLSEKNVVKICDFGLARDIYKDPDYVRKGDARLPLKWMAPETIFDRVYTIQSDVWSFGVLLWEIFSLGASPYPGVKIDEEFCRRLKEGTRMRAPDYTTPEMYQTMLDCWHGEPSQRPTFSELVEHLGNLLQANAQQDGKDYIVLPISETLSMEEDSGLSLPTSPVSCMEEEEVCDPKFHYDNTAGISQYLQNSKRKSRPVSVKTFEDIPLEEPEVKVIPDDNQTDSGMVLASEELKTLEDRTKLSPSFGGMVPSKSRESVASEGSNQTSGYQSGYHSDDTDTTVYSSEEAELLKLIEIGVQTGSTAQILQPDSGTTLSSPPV

Take `O=C1Nc2ccccc2C1=Cc1cnc[nH]1` [Tripolin B, 3-(3H-Imidazol-4-ylmethylene)-1,3-dihydro-indol-2-one]: the IC50 at Aurora A (read-out: Tripolin B) was found to be 2.5 µM; on FGFR (read-out: Tripolin B) it was 38 µM; on IGF1R (read-out: Tripolin B) it was 13.2 µM; at KDR (read-out: Tripolin B) it was 6.5 µM; at EGFR (read-out: Tripolin B) it was 71.7 µM; at Aurora B (read-out: Tripolin B), 6 µM.
`O=C1Nc2ccccc2C1=Cc1cc(O)ccc1O` [Tripolin A, 3-(2,5-Dihydroxy-benzylidene)-1,3-dihydro-indol-1-one]: the IC50 amounted to 1.5 µM at Aurora A (read-out: Tripolin A); 33.4 µM on FGFR (read-out: Tripolin A); 14.9 µM at IGF1R (read-out: Tripolin A); 17.9 µM at KDR (read-out: Tripolin A); 11 µM at EGFR (read-out: Tripolin A); 7 µM at Aurora B (read-out: Tripolin A).

The values above are taken from publication PMC3596387, “Tripolin A, a Novel Small-Molecule Inhibitor of Aurora A Kinase, Reveals New Regulation of HURP's Distribution on Microtubules” (PLoS ONE, 2013).
